In ChEMBL document CHEMBL4184196, “Design, synthesis, and evaluation of polyamine-memantine hybrids as NMDA channel blockers” (Bioorg Med Chem, 2018):
pIC50: −log10 of the molar value. Structures can show the parent of a compound that is named as a salt. Active and inactive are the calls of the source. The rule behind the calls is not given here.

Key:
Type in all cases: cell-based
[1] = biological target: Glutamate NMDA receptor; Grin1/Grin2a (Rattus norvegicus) (UniProt P35439+Q00959); assay: Antagonist activity at rat brain GluN1/GluN2A receptor expressed in Xenopus laevis oocytes assessed as inhibition of glutamate/glycine-induced channel current at 1 uM by two electrode voltage clamp method
[2] = biological target: Glutamate NMDA receptor; Grin1/Grin2b (Rattus norvegicus) (UniProt P35439+Q00960); assay: Antagonist activity at rat brain GluN1/GluN2B receptor expressed in Xenopus laevis oocytes assessed as inhibition of glutamate/glycine-induced channel current at 1 uM by two electrode voltage clamp method
[3] = biological target: Glutamate NMDA receptor; Grin1/Grin2a (Rattus norvegicus, UniProt P35439+Q00959); assay: Antagonist activity at rat brain GluN1/GluN2A receptor expressed in Xenopus laevis oocytes assessed as inhibition of glutamate/glycine-induced channel current by two electrode voltage clamp method
[4] = biological target: Glutamate NMDA receptor; Grin1/Grin2b (Rattus norvegicus, UniProt P35439+Q00960); assay: Antagonist activity at rat brain GluN1/GluN2B receptor expressed in Xenopus laevis oocytes assessed as inhibition of glutamate/glycine-induced channel current by two electrode voltage clamp method

inhibition [1]	inhibition [2]	pIC50 [3]	pIC50 [4]	Compound
Active	Active			CC12CC3CC(C)(C1)CC(NCCCCN)(C3)C2
Active	Active			CC12CC3CC(C)(C1)CC(NCCCCCCCCCN)(C3)C2
		6.18	6.23	CC12CC3CC(C)(C1)CC(NCCCCNCCCCN)(C3)C2
		5.86		CC12CC3CC(C)(C1)CC(N)(C3)C2 [MEMANTINE HYDROCHLORIDE]
Active	Active			CC12CC3CC(C)(C1)CC(NCCCCN=C(N)N)(C3)C2
Active	Active			CC12CC3CC(C)(C1)CC(NCCCCNCc1ccccc1)(C3)C2
		6.42	6.36	CC12CC3CC(C)(C1)CC(NCCCCNCCCCNC(=N)N)(C3)C2
